According to patent publication US8709406B2, “Prevention and treatment of oxidative stress disorders by gluthathione and phase II detoxification enzymes” (Brassica Foundation for ChemoProtection Research, priority 2001, dated 2014):

How the values were obtained:
HaCaT cells = test: tert-Butyl hydroperoxide cytotoxicity (MTT, median effect analysis) and protection by sulforaphane; format: cell-based, human; conditions: tert-butyl hydroperoxide 8 h
Protocol: Mouse L1210 leukemia cells, a gift from Dr. Joseph G. Cory, East Carolina State University, Greenville, N.C., were grown in RPMI 1640 medium supplemented with 10% horse serum. All cultures were incubated in a humidified atmosphere of 5% CO2 at 37° C. Media and sera were obtained from Life Technologies (Rockville, Md.).
All experiments were performed in 96-well microliter plates. ARPE-19 and HaCaT cells were seeded at 10,000 cells per well and grown for 24 h before addition of sulforaphane, whereas L1210 cells (5,000 cells/well) were not incubated before sulforaphane treatment. Solutions of sulforaphane (5 mM) in dimethyl sulfoxide were diluted with the cognate culture medium to provide final inducer concentrations of 0.16-5.0 μM. The final DMSO concentrations were 0.1% by volume.
(§1) Cell viability was determined by spectroscopic measurement of the reduction of MTT (Carmichael, J., DeGraff, W. G., Gazdar, A. F., Minna, J. D. & Mitchell, J. B. (1987) Cancer Res. 47, 936-942). The culture media were discarded after the designated incubation periods, the cells were washed three times with PBS by use of a microtiter plate washer (Ultrawash Plus, Dynex Technologies, Chantilly, Va.). Each well then received 150 μl of an MTT solution (0.5 mg/ml) in serum-free medium. The plates were incubated for 2 h at 37° C., the MTT solution was discarded, 100 μl of DMSO were added to each well, and the plates were shaken at 200 rpm on an orbital shaker for 5 min. The absorbances of the wells were determined at 555 nm with a microtiter plate reader (Spectra Max Plus, Molecular Devices, Sunnyvale, Calif.). The absorbance of reduced MIT was then compared at each inducer and oxidant concentration to that of untreated control cells that received only the vehicle in which sulforaphane (DMSO) and menadione (DMSO or PBS) were dissolved. In each experiment three identical 96-well plates were used and the means of the absorbance values, the standard deviations of these means, and their coefficients of variation were calculated.
Dose-effect analyses were performed according to the Median Effect Equation, by use of a computer program (Chou, T. C. & Hayball, M. (1996) CalcuSyn for Windows 3.1 and 95: multiple dose effect analyzer and manual for IBM-PC, Biosoft, Cambridge, U.K). The equation: fa/fu=[D/Dm]^m, where fa is the fraction of cells affected by the oxidant, fu is the fraction unaffected (i.e., 1-fa), D is the dose of oxidant required to produce the effect fa, Dm is the concentration of oxidant required to produce a 50% effect, i.e., when fa=fu, and the slope m is a measure of the sigmoidicity of the dose-response curve, and is therefore a measure of cooperativity. The results are analyzed by plotting log(fa/fu) with respect to log D of the oxidant. The computer program provides the slope (m) of the curves, and the goodness of fit (r^2) to linearity.

[1] = system: Retina Pigment Epithelium Cell; test: Photooxidative damage by all-trans-retinal and 365 nm light, protection by sulforaphane (cell survival); format: cell-based, human
Protocol: There is accumulating evidence that chronic exposure to sunlight plays a role in some degenerative diseases, for instance, age-related macular degeneration (AMD). We have, therefore, carried out an experiment of protection of human RPE cells against photooxidative damage mediated by all-trans-retinal, which exists in human retina and is a critical component of the visual cycle.
as §1
To examine the protective effect of sulforaphane against photooxidative damage mediated by all-trans-retinal and light exposure, the cells were treated with 0-100 μM of all-trans-retinal for 2 hours and light exposure at 365 nm for 20 min after incubation with 0-5 μM of sulforaphane for 24 hours.

[2] = after sulforaphane 0.63 μM 24 h
[3] = after sulforaphane 1.25 μM 24 h
[4] = after sulforaphane 2.50 μM 24 h

## C[S+]([O-])CCCCN=C=S (stereo not drawn) [Sulforaphane]
HaCaT cells; [2]
  Dm (median effect concentration) of tert-butyl hydroperoxide: 113 µM
  m (slope of median effect plot) for tert-butyl hydroperoxide: 0.894
HaCaT cells; [3]
  Dm (median effect concentration) of tert-butyl hydroperoxide: 166 µM
  m (slope of median effect plot) for tert-butyl hydroperoxide: 0.921
HaCaT cells; [4]
  Dm (median effect concentration) of tert-butyl hydroperoxide: 200 µM
  m (slope of median effect plot) for tert-butyl hydroperoxide: 0.768
[1]; 365 nm light, all-trans-retinal 0 μM, sulforaphane 1.25 μM 24 h
  Survival: 100.0%
[1]; 365 nm light, all-trans-retinal 0 μM, sulforaphane 2.50 μM 24 h
  Survival: 100.6%
[1]; 365 nm light, all-trans-retinal 0 μM, sulforaphane 5.00 μM 24 h
  Survival: 100.4%
[1]; 365 nm light, all-trans-retinal 12.5 μM, sulforaphane 1.25 μM 24 h
  Survival: 95.4%
[1]; 365 nm light, all-trans-retinal 12.5 μM, sulforaphane 2.50 μM 24 h
  Survival: 96.5%
[1]; 365 nm light, all-trans-retinal 12.5 μM, sulforaphane 5.00 μM 24 h
  Survival: 103.4%
[1]; 365 nm light, all-trans-retinal 25 μM, sulforaphane 1.25 μM 24 h
  Survival: 54.4%
[1]; 365 nm light, all-trans-retinal 25 μM, sulforaphane 2.50 μM 24 h
  Survival: 63.8%
[1]; 365 nm light, all-trans-retinal 25 μM, sulforaphane 5.00 μM 24 h
  Survival: 72.2%
[1]; 365 nm light, all-trans-retinal 50 μM, sulforaphane 1.25 μM 24 h
  Survival: 11.7%
[1]; 365 nm light, all-trans-retinal 50 μM, sulforaphane 2.50 μM 24 h
  Survival: 15.2%
[1]; 365 nm light, all-trans-retinal 50 μM, sulforaphane 5.00 μM 24 h
  Survival: 27.4%
[1]; 365 nm light, all-trans-retinal 100 μM, sulforaphane 1.25 μM 24 h
  Survival: 3.4%
[1]; 365 nm light, all-trans-retinal 100 μM, sulforaphane 2.50 μM 24 h
  Survival: 5.2%
[1]; 365 nm light, all-trans-retinal 100 μM, sulforaphane 5.00 μM 24 h
  Survival: 8.2%
[1]; 365 nm light, column Control, sulforaphane 1.25 μM 24 h
  Survival: 100.7%
[1]; 365 nm light, column Control, sulforaphane 2.50 μM 24 h
  Survival: 97.4%
[1]; 365 nm light, column Control, sulforaphane 5.00 μM 24 h
  Survival: 101.4%
[1]; in dark, all-trans-retinal 0 μM, sulforaphane 1.25 μM 24 h
  Survival: 96.6%
[1]; in dark, all-trans-retinal 0 μM, sulforaphane 2.50 μM 24 h
  Survival: 99.4%
[1]; in dark, all-trans-retinal 0 μM, sulforaphane 5.00 μM 24 h
  Survival: 103.1%
[1]; in dark, all-trans-retinal 12.5 μM, sulforaphane 1.25 μM 24 h
  Survival: 96.3%
[1]; in dark, all-trans-retinal 12.5 μM, sulforaphane 2.50 μM 24 h
  Survival: 101.5%
[1]; in dark, all-trans-retinal 12.5 μM, sulforaphane 5.00 μM 24 h
  Survival: 104.6%
[1]; in dark, all-trans-retinal 25 μM, sulforaphane 1.25 μM 24 h
  Survival: 97.7%
[1]; in dark, all-trans-retinal 25 μM, sulforaphane 2.50 μM 24 h
  Survival: 98.3%
[1]; in dark, all-trans-retinal 25 μM, sulforaphane 5.00 μM 24 h
  Survival: 104.8%
[1]; in dark, all-trans-retinal 50 μM, sulforaphane 1.25 μM 24 h
  Survival: 98.4%
[1]; in dark, all-trans-retinal 50 μM, sulforaphane 2.50 μM 24 h
  Survival: 99.9%
[1]; in dark, all-trans-retinal 50 μM, sulforaphane 5.00 μM 24 h
  Survival: 106.8%
[1]; in dark, all-trans-retinal 100 μM, sulforaphane 1.25 μM 24 h
  Survival: 74.7%
[1]; in dark, all-trans-retinal 100 μM, sulforaphane 2.50 μM 24 h
  Survival: 75.6%
[1]; in dark, all-trans-retinal 100 μM, sulforaphane 5.00 μM 24 h
  Survival: 84.6%
[1]; in dark, column Control, sulforaphane 1.25 μM 24 h
  Survival: 96.7%
[1]; in dark, column Control, sulforaphane 2.50 μM 24 h
  Survival: 99.5%
[1]; in dark, column Control, sulforaphane 5.00 μM 24 h
  Survival: 105.6%
